Measured values as given in patent publication US10975068B2, “6-aminopyridin-3-yl thiazoles as modulators of RORγT” (Janssen Pharmaceutica NV, priority 2016, dated 2021).
Like-named read-outs stand apart in the source and are kept apart here. Marks after values point to notes of the source that are not given here. Each block holds one compound with its values, some of them ahead of it.

Tests used:
[1] = target: human RORγt ligand binding domain (RORγt LBD) (Homo sapiens (Human), UniProt P51449); experiment: RORγt ThermoFluor® assay (thermal shift binding); conditions: read-out: ThermoFluor® Assay, Kd
Procedure, shortened: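 Binding was inferred from thermal stabilisation (ΔTm) of the E. coli-expressed RORγt LBD (0.065 mg/mL), monitored by 1,8-ANS (60 μM) emission at 500 nm during a 1 °C/min ramp. Buffer was Hepes 100 mM pH 7.0 with NaCl, GSH and Tween-20.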

full-length human RORγt = full-length human RORγt (Homo sapiens (Human), UniProt P51449); experiment: RORγt (full-length human) reporter assay, Conditions B or C; assay type: cell-based; conditions: for inhibition at 3 µM: read-out: RORγt (FL) Reporter Assay B or C, % inhibition; for RORγt (FL) Reporter Assay B or C, % inhibition (value marked *): marked *: footnote not given
Procedure, shortened: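 Readout is dual luciferase: firefly (GAL4-driven) normalized to DMSO-only and saturating-reference controls, then to CMV-Renilla. Full-length human RORγt fused to GAL4-DBD was transiently expressed in HEK293T; compound exposure ran overnight (16-20 h) starting 4-6 h after transfection, final FBS 1.3%, DMSO 0.1%.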

[2] = read-out: RORγt (FL) Reporter Assay B or C, IC50
[3] = Conditions B or C, read-out: RORγt (FL) Reporter Assay B or C, IC50

full-length human RORγt, sequence (P51449 other isoform, or with tags, fused parts or gaps): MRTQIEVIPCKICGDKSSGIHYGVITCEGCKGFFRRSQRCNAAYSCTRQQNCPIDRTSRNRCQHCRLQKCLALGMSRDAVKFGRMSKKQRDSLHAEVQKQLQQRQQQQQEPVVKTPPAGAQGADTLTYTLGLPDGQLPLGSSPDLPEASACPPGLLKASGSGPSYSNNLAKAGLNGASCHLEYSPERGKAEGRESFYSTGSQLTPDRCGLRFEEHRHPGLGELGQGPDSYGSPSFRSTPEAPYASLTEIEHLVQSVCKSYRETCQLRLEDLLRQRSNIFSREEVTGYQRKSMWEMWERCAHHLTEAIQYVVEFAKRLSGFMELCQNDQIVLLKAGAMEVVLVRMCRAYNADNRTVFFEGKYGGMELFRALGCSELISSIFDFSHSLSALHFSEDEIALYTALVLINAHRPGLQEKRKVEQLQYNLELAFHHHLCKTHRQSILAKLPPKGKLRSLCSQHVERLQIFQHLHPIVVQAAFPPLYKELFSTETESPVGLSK
human RORγt ligand binding domain (RORγt LBD), sequence (P51449 other isoform, or with tags, fused parts or gaps): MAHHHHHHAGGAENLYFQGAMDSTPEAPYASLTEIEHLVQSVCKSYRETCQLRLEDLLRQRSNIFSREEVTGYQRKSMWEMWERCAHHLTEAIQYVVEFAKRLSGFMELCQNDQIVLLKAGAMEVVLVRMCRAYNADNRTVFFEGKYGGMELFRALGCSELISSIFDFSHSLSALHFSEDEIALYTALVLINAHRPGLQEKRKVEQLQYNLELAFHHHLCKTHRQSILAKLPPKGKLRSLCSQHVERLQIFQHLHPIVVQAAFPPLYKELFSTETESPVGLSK

Structure (SMILES): C[C@H](Nc1cc(C(F)F)c(-c2sc(C(=O)N[C@@H]3CC[C@@H](O)C3)nc2C(=O)N2CCC[C@@H]2C)cn1)C(F)(F)F [Example 289, 5-(4-(Difluoromethyl)-6-(((S)-1,1,1-trifluoropropan-2-yl)amino)pyridin-3-yl)-N-((1R,3R)-3-hydroxycyclopentyl)-4-((S)-2-methylpyrrolidine-1-carbonyl)thiazole-2-carboxamide]
Kd [1]: 3.8 nM
inhibition at 3 µM (full-length human RORγt; at 3 μM compound concentration): 99%
IC50 (full-length human RORγt; [2]): 69 nM

Structure (SMILES): C[C@H]1CC(F)(F)CN1C(=O)c1nc(C(=O)N[C@H](C)C(C)(C)O)sc1-c1cnc(NC2(C)CCC2)cc1C(F)F [Example 325, 4-((S)-4,4-Difluoro-2-methylpyrrolidine-1-carbonyl)-5-(4-(difluoromethyl)-6-((1-methylcyclobutyl)amino)pyridin-3-yl)-N—((R)-3-hydroxy-3-methylbutan-2-yl)thiazole-2-carboxamide]
Kd [1]: 1.2 nM
inhibition at 3 µM (full-length human RORγt; at 3 μM compound concentration): 96%
IC50 (full-length human RORγt; [2]): 120 nM

Structure (SMILES): C[C@H](NC(=O)c1nc(C(=O)N2CC(F)(F)C[C@@H]2C)c(-c2cnc(N[C@@H](C3CC3)C(F)(F)F)cc2C(F)F)s1)C(C)(C)O [Example 313, 5-(6-(((S)-1-Cyclopropyl-2,2,2-trifluoroethyl)amino)-4-(difluoromethyl)pyridin-3-yl)-4-((S)-4,4-difluoro-2-methylpyrrolidine-1-carbonyl)-N—((S)-3-hydroxy-3-methylbutan-2-yl)thiazole-2-carboxamide]
Kd [1]: 0.74 nM
inhibition at 3 µM (full-length human RORγt; at 3 μM compound concentration): 106%
IC50 (full-length human RORγt; [2]): 36 nM

Structure (SMILES): CC[C@H](Nc1cc(C(F)F)c(-c2sc(C(=O)N[C@H]3CC[C@H](O)C3)nc2C(=O)N2C3CCC2CC3)cn1)C(F)(F)F [Example 151]
Kd [1]: 0.87 nM
RORγt (FL) Reporter Assay B or C, % inhibition (value marked *) (full-length human RORγt; Conditions B or C): 104* %
IC50 (full-length human RORγt; [3]): 15 nM

Structure (SMILES): C[C@H](Nc1cc(C(F)F)c(-c2sc(C(=O)N[C@H]3CCC[C@@H]3O)nc2C(=O)N2C3CCC2CC3)cn1)C(F)(F)F [Example 293, 4-((1s,4s)-7-Azabicyclo[2.2.1]heptane-7-carbonyl)-5-(4-(difluoromethyl)-6-(((S)-1,1,1-trifluoropropan-2-yl)amino)pyridin-3-yl)-N-((1S,2S)-2-hydroxycyclopentyl)thiazole-2-carboxamide]
Kd [1]: 2 nM
IC50 (full-length human RORγt; RORγt (FL) Reporter Assay B or C, IC50): 13 nM
inhibition at 3 µM (full-length human RORγt; at 3 μM compound concentration): 94%

Structure (SMILES): C[C@H]1CCCN1C(=O)c1nc(C(=O)N2CC[C@@H](O)C2)sc1-c1cnc(NC(C)(C)C)cc1C(F)(F)F [Example 349, [5-[6-(tert-Butylamino)-4-(trifluoromethyl)-3-pyridyl]-2-[(3R)-3-hydroxypyrrolidine-1-carbonyl]thiazol-4-yl]-[(2S)-2-methylpyrrolidin-1-yl]methanone]
Kd [1]: 11 nM
inhibition at 3 µM (full-length human RORγt; at 3 μM compound concentration): 105%
IC50 (full-length human RORγt; [2]): 63 nM

Structure (SMILES): CC[C@H](Nc1cc(C(F)(F)F)c(-c2sc(C(=O)N[C@@H]3COC[C@H]3O)nc2C(=O)N2CCC[C@@H]2C)cn1)C(F)(F)F [Example 170, N-((3R,4S)-4-Hydroxytetrahydrofuran-3-yl)-4-((2S)-2-methylpyrrolidine-1-carbonyl)-5-(4-(trifluoromethyl)-6-(((1S)-1-(trifluoromethyl)propyl)amino)-3-pyridyl)thiazole-2-carboxamide]
Kd [1]: 1.9 nM
RORγt (FL) Reporter Assay B or C, % inhibition (value marked *) (full-length human RORγt; Conditions B or C): 101* %
IC50 (full-length human RORγt; [3]): 24 nM

Structure (SMILES): C[C@H]1CCCN1C(=O)c1nc(C(=O)N[C@H](C)C(C)(C)O)sc1-c1cnc(NC(C)(C)C)cc1C(F)F [Example 269, 5-[6-(tert-Butylamino)-4-(difluoromethyl)-3-pyridyl]-N-[(1R)-2-hydroxy-1,2-dimethyl-propyl]-4-[(2S)-2-methylpyrrolidine-1-carbonyl]thiazole-2-carboxamide]
Kd [1]: 4.9 nM
inhibition at 3 µM (full-length human RORγt; at 3 μM compound concentration): 101%
IC50 (full-length human RORγt; [2]): 8.2 nM

Structure (SMILES): CC[C@H](Nc1cc(C(F)F)c(-c2sc(C(=O)N[C@H]3CCC[C@@H]3O)nc2C(=O)N2C3CCC2CC3)cn1)C(F)(F)F [Example 210, 4-((1s,4s)-7-Azabicyclo[2.2.1]heptane-7-carbonyl)-5-(4-(difluoromethyl)-6-(((1S)-1-(trifluoromethyl)propyl)amino)-3-pyridyl)-N-((1S,2S)-2-hydroxycyclopentyl)thiazole-2-carboxamide]
Kd [1]: 0.69 nM
RORγt (FL) Reporter Assay B or C, % inhibition (value marked *) (full-length human RORγt; Conditions B or C): 105* %
IC50 (full-length human RORγt; [3]): 21 nM

Structure (SMILES): CC[C@H](Nc1cc(C(F)F)c(-c2sc(C(=O)NC3CCC3O)nc2C(=O)N2CCC[C@@H]2C)cn1)C(F)(F)F (stereo partly drawn) [Example 379, 5-(4-(Difluoromethyl)-6-(((S)-1,1,1-trifluorobutan-2-yl)amino)pyridin-3-yl)-N-(cis-2-hydroxycyclobutyl)-4-((S)-2-methylpyrrolidine-1-carbonyl)thiazole-2-carboxamide]
Kd [1]: 2.4 nM
RORγt (FL) Reporter Assay B or C, % inhibition (full-length human RORγt; at 3 μM compound concentration): 101* %
IC50 (full-length human RORγt; [2]): 55 nM

More lines, in order of falling Kd [1], values ahead:

Kd [1]: 32 nM
RORγt (FL) Reporter Assay B or C, % inhibition (value marked *) (full-length human RORγt; Conditions B or C): 89* %
IC50 (full-length human RORγt; [3]): 190 nM
Structure (SMILES): C[C@H](Nc1cc(C(F)F)c(-c2sc(C(=O)N[C@@H]3C[C@H]3O)nc2C(=O)N2CCC[C@@H]2C)cn1)C(F)(F)F (single isomer, unassigned) [Example 157, 5-(4-(Difluoromethyl)-6-(((S)-1,1,1-trifluoropropan-2-yl)amino)pyridin-3-yl)-N-((1R*,2R*)-2-hydroxycyclopropyl)-4-((S)-2-methylpyrrolidine-1-carbonyl)thiazole-2-carboxamide]

Kd [1]: 5.8 nM
RORγt (FL) Reporter Assay B or C, % inhibition (value marked ***) (full-length human RORγt; Conditions B or C, marked ***: footnote not given): 119*** %
IC50 (full-length human RORγt; [3]): 44 nM
Structure (SMILES): C[C@H](Nc1cc(C(F)(F)F)c(-c2sc(C(=O)NCC(C)(C)O)nc2C(=O)N2CCC[C@@H]2C)cn1)C1CCC1 (relative stereo) [Example 175, 5-(6-(((S*)-1-Cyclobutylethyl)amino)-4-(trifluoromethyl)pyridine-3-yl)-N-(2-hydroxy-2-methylpropyl)-4-(((S)-2-methylpyrrolidine-1-carbonyl)thiazole-2-carboxamide]

Kd [1]: 3.7 nM
RORγt (FL) Reporter Assay B or C, % inhibition (value marked *) (full-length human RORγt; Conditions B or C): 111* %
IC50 (full-length human RORγt; [3]): 13 nM
Structure (SMILES): C[C@H]1CCCN1C(=O)c1nc(C(=O)NCC2(O)CCC2)sc1-c1cnc(NC2CCCC2)cc1C(F)F [Example 71, (S)-5-(6-(Cyclopentylamino)-4-(difluoromethyl)pyridin-3-yl)-N-((1-hydroxycyclobutyl)methyl)-4-(2-methylpyrrolidine-1-carbonyl)thiazole-2-carboxamide]

Kd [1]: 3.5 nM
inhibition at 3 µM (full-length human RORγt; at 3 μM compound concentration): 102%
IC50 (full-length human RORγt; [2]): 5.1 nM
Structure (SMILES): C[C@H](NC(=O)c1nc(C(=O)N2CCC[C@@H]2C)c(-c2cnc(NC(C)(C)C)cc2C(F)F)s1)C(C)(C)O [Example 270, 5-[6-(tert-Butylamino)-4-(difluoromethyl)-3-pyridyl]-N-[(1S)-2-hydroxy-1,2-dimethyl-propyl]-4-[(2S)-2-methylpyrrolidine-1-carbonyl]thiazole-2-carboxamide]

Kd [1]: 2.5 nM
IC50 (full-length human RORγt; [3]): 20 nM
inhibition at 6 µM (full-length human RORγt; read-out: RORγt (FL) Reporter Assay B or C, % inhibition @ 6 μM, Conditions B or C, @ 6 μM): 111%
Structure (SMILES): C[C@H]1CC(F)(F)CN1C(=O)c1nc(C(=O)NCC(C)(C)O)sc1-c1cnc(NC2CCCC2)cc1C(F)F [Example 44, (S)-5-(6-(Cyclopentylamino)-4-(difluoromethyl)pyridin-3-yl)-4-(4,4-difluoro-2-methylpyrrolidine-1-carbonyl)-N-(2-hydroxy-2-methylpropyl)thiazole-2-carboxamide]

Kd [1]: 2.3 nM
RORγt (FL) Reporter Assay B or C, % inhibition (value marked *) (full-length human RORγt; Conditions B or C): 114* %
IC50 (full-length human RORγt; [3]): 39 nM
Structure (SMILES): C[C@H]1CC(F)(F)CN1C(=O)c1nc(C(=O)NCC(C)(C)O)sc1-c1cnc(NC(C)(C)C)cc1C(F)F [Example 143, (S)-5-(6-(tert-Butylamino)-4-(difluoromethyl)pyridin-3-yl)-4-(4,4-difluoro-2-methylpyrrolidine-1-carbonyl)-N-(2-hydroxy-2-methylpropyl)thiazole-2-carboxamide]

Kd [1]: 1.3 nM
RORγt (FL) Reporter Assay B or C, % inhibition (value marked *) (full-length human RORγt; Conditions B or C): 108* %
IC50 (full-length human RORγt; [3]): 17 nM
Structure (SMILES): C[C@H]1CCCN1C(=O)c1nc(C(=O)NCC(C)(C)O)sc1-c1cnc(NC2(C)CCC2)cc1C(F)(F)F [Example 77, (S)—N-(2-Hydroxy-2-methylpropyl)-5-(6-((1-methylcyclobutyl)amino)-4-(trifluoromethyl)pyridin-3-yl)-4-(2-methylpyrrolidine-1-carbonyl)thiazole-2-carboxamide]

Kd [1]: 1.2 nM
RORγt (FL) Reporter Assay B or C, % inhibition (value marked *) (full-length human RORγt; Conditions B or C): 108* %
IC50 (full-length human RORγt; [3]): 14 nM
Structure (SMILES): C[C@H]1CCCN1C(=O)c1nc(C(=O)NCC2(O)CCC2)sc1-c1cnc(NC(C)(C)C)cc1C(F)(F)F [Example 134, (S)-5-(6-(tert-Butylamino)-4-(trifluoromethyl)pyridin-3-yl)-N-((1-hydroxycyclobutyl)methyl)-4-(2-methylpyrrolidine-1-carbonyl)thiazole-2-carboxamide]

Kd [1]: 1.2 nM
RORγt (FL) Reporter Assay B or C, % inhibition (value marked *) (full-length human RORγt; Conditions B or C): 106* %
IC50 (full-length human RORγt; [3]): 34 nM
Structure (SMILES): C[C@H](O)[C@@H](C)NC(=O)c1nc(C(=O)N2CCC[C@@H]2C)c(-c2cnc(NC(C)(C)C)cc2C(F)(F)F)s1 (relative stereo) [Example 235, 5-(6-(tert-Butylamino)-4-(trifluoromethyl)pyridin-3-yl)-N-((2R*,3S*)-3-hydroxybutan-2-yl)-4-((S)-2-methylpyrrolidine-1-carbonyl)thiazole-2-carboxamide]
